Assay [1] has as its system BTK and AKT phosphorylation. Put plainly: Inhibitor washout assay, Mino cells. In kind it is cell-based, human. Particulars: 1 h treatment, washes with PBS.
The target of the next assay is T1, BTK WT (Homo sapiens, UniProt Q06187).
T1 construct: purchased Reaction Biology (contract assay)
Put plainly: Kinase activity assay, BTK WT. The format is biochemical.

Assay [2] concerns the target T2, BTK C481S (Ibrutinib-resistant mutant) (Homo sapiens, UniProt Q06187, C481S).
T2 construct: purchased Reaction Biology (contract assay)
Put plainly: Kinase activity assay, BTK C481S. The format is biochemical.

Another assay addresses T3, PI3Kα (Homo sapiens, UniProt P42336).
T3 construct: purchased ThermoFisher Scientific (contract assay)
Put plainly: Adapta kinase activity assay, PI3Kα. The format is biochemical. Here is the method:
(§1) Adapta kinase activity assays were carried out by ThermoFisher Scientific (Waltham, MA) to measure IC50 of the indicated inhibitors for PI3K isoforms. Kinase activity assays were carried out by Reaction Biology (Malvern, PA) to measure IC50 of the indicated inhibitors for BTK WT and BTK C481S (Ibrutinib-resistant mutant). Alpha Screen assays were carried out by Reaction Biology (Malvern, PA) to measure IC50 of the indicated inhibitors for His-tagged BRD4 BD1 and BD2 bromodomains.

In the next assay the target is T4, PI3Kγ (Homo sapiens, UniProt P48736).
T4 construct: purchased ThermoFisher Scientific (contract assay)
Put plainly: Adapta kinase activity assay, PI3Kγ. In kind it is biochemical. The method, then: as §1

In the next assay the target is T5, PI3Kδ (Homo sapiens, UniProt O00329).
T5 construct: purchased ThermoFisher Scientific (contract assay)
Briefly: Adapta kinase activity assay, PI3Kδ. In kind it is biochemical. Here is the method: as §1

In assay [3] the test system is JeKo-1 cells. Briefly: Cell viability assay (alamarBlue / CellTiter-Glo), JeKo-1. The format is cell-based. Particulars: Homo sapiens, JeKo-1, 48 h; read-out: IC50, anti-proliferative activity, JeKo-1.
Assay [4] deals with Mino cells. Put plainly: Cell viability assay (alamarBlue / CellTiter-Glo), Mino. In kind it is cell-based. To be noted: Homo sapiens, 48 h, read-out: IC50, anti-proliferative activity, Mino. In general terms: The colour change of resazurin is a common sign of viable cells or microbes.
Another assay concerns JeKo-1 BTK C481S cells. Put plainly: Cell viability assay, JeKo-1 BTK C481S. In kind it is cell-based. To be noted: Homo sapiens, JeKo-1, 48 h.
The next assay relates to Mino BTK C481S cells. Briefly: Cell viability assay, Mino BTK C481S. In kind it is cell-based. Particulars: Homo sapiens, 48 h.
Assay [5] deals with JeKo-1 cells. Put plainly: FITC Annexin V apoptosis assay, JeKo-1. In kind it is cell-based, human. To be noted: JeKo-1, 5 μM, 24 h.
The test system of assay [6] is Mino cells. Put plainly: FITC Annexin V apoptosis assay, Mino. In kind it is cell-based, human. Particulars: 5 μM, 24 h. Here is the method: Jeko-1 and Mino cells were seeded at a density of 2x10^6 cells and incubated overnight. […] Cells were harvested and washed twice with cold PBS, and then labeled with Annexin V-FITC and PI (BD Pharmingen, Cat # 556419) or Annexin APC (Thermo Fisher, Cat # A35110) according to the manufacturer’s protocol (BD Pharmingen). The labeled cells were analyzed using BD Accuri C6 Flow cytometer. Experiments were performed in duplicate.

Assay [7] deals with relapsed/refractory (R/R) MCL patients. To be noted: R/R MCL patients treated with Ibrutinib; cited from earlier work.

Each structure is given as a SMILES string. Where two headings read alike, the source gives them in different places.

Data on four compounds can be found in PMC8760370, “Combinatorial inhibition of BTK, PI3K-AKT and BRD4-MYC as a strategy for treatment of mantle cell lymphoma” (Molecular Biomedicine, 2022).

T3 sequence (P42336 whole entry): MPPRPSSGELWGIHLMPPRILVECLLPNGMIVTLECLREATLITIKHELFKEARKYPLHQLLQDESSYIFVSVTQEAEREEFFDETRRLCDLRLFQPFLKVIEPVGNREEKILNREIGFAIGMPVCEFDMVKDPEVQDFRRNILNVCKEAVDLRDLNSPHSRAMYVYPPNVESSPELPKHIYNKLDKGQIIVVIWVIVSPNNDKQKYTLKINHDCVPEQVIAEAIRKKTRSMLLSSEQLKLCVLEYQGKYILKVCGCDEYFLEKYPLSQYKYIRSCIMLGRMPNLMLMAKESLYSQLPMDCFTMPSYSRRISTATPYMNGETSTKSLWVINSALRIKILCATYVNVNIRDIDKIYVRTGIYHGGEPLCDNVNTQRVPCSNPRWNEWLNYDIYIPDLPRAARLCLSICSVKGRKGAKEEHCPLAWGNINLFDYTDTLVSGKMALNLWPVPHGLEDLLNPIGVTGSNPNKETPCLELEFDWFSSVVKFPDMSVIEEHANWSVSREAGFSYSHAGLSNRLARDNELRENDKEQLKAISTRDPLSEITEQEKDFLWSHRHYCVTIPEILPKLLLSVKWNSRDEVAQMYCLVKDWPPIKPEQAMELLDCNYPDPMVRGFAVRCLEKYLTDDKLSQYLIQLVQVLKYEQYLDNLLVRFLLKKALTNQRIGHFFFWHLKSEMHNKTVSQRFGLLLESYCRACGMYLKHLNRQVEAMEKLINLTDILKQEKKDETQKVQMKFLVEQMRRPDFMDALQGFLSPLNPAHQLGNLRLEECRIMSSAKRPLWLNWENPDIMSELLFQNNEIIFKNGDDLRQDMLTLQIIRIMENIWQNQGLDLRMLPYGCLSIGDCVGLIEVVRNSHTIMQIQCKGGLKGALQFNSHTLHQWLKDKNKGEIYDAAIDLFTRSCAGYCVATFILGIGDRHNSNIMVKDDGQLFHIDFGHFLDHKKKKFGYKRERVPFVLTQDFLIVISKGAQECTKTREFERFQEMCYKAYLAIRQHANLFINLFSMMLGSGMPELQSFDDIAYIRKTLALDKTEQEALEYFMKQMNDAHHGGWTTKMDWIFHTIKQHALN
T3 sequence (P27986 whole entry partner): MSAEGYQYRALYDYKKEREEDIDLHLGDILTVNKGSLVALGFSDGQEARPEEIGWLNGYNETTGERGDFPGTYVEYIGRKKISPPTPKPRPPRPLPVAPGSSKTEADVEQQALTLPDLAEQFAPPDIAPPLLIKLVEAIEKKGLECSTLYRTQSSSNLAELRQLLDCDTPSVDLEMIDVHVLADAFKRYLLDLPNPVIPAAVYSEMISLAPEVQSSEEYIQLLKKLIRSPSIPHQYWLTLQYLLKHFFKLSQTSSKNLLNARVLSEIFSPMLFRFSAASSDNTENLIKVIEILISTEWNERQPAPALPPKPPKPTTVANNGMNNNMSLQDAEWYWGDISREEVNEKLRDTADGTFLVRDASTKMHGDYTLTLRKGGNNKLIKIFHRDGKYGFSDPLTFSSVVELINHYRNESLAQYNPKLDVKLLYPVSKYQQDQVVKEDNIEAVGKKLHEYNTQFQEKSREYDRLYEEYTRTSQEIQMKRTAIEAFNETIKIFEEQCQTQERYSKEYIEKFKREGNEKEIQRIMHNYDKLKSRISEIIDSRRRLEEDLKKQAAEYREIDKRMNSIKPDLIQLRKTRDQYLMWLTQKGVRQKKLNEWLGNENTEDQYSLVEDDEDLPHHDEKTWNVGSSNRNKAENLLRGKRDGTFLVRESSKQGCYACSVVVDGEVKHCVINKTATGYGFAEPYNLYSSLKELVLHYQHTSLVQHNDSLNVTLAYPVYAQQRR
T5 sequence (O00329 whole entry): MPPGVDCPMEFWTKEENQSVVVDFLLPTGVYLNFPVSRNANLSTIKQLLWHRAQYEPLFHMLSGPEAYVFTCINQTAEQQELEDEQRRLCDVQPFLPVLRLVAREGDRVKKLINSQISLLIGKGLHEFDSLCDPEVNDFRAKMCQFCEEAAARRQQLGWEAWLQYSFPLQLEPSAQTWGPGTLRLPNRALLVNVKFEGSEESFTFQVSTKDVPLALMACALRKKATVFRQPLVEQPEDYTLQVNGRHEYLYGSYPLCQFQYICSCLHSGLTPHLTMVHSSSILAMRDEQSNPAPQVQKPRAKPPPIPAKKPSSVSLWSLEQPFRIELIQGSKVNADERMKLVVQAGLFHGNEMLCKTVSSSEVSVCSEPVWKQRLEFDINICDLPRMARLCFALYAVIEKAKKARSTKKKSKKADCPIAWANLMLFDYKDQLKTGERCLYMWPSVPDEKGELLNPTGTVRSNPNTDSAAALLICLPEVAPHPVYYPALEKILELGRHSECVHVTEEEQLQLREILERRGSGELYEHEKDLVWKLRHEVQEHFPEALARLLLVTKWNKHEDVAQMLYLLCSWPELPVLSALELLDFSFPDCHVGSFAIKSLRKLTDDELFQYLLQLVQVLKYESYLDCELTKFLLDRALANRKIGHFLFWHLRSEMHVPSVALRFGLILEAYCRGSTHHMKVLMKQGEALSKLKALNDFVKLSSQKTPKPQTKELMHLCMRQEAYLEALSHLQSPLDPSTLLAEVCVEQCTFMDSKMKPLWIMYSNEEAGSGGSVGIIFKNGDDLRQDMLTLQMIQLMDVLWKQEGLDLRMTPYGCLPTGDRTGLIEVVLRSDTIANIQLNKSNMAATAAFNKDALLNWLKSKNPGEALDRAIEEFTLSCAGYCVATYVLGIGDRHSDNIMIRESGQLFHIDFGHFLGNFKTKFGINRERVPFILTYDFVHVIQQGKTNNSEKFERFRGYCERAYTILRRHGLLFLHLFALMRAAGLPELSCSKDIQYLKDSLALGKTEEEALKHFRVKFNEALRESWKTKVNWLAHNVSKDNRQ
T5 sequence (P27986 whole entry partner): as the sequence (P27986 whole entry partner) above
T4 sequence (P48736 whole entry): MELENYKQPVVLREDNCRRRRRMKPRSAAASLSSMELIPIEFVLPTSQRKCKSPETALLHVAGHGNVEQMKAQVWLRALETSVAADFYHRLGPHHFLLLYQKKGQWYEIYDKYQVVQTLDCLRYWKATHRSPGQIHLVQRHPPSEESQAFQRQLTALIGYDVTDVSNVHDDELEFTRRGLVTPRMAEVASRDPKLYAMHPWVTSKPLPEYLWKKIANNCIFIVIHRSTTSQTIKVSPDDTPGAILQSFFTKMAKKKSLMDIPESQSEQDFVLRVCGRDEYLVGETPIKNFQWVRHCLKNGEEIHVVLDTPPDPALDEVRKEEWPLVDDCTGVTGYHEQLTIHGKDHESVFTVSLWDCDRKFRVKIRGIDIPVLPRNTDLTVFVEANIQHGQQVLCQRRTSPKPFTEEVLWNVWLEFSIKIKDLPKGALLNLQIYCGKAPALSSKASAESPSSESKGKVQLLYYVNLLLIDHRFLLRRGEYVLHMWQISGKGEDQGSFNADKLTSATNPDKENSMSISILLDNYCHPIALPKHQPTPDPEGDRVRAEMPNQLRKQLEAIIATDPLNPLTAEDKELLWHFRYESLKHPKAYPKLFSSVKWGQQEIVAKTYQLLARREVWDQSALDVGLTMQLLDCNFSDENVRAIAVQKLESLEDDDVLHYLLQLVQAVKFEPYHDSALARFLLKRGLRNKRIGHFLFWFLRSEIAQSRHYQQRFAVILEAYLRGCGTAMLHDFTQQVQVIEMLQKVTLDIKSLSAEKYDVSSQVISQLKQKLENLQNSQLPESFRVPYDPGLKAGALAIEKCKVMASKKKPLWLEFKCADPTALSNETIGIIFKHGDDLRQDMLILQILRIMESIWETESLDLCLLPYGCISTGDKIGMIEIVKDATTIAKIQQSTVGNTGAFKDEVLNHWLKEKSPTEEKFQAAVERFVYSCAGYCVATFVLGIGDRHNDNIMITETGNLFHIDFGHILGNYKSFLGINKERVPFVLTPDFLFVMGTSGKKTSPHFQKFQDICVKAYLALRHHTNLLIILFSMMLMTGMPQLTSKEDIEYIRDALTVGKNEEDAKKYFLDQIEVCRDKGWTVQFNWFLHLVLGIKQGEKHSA
T1 sequence (Q06187 whole entry): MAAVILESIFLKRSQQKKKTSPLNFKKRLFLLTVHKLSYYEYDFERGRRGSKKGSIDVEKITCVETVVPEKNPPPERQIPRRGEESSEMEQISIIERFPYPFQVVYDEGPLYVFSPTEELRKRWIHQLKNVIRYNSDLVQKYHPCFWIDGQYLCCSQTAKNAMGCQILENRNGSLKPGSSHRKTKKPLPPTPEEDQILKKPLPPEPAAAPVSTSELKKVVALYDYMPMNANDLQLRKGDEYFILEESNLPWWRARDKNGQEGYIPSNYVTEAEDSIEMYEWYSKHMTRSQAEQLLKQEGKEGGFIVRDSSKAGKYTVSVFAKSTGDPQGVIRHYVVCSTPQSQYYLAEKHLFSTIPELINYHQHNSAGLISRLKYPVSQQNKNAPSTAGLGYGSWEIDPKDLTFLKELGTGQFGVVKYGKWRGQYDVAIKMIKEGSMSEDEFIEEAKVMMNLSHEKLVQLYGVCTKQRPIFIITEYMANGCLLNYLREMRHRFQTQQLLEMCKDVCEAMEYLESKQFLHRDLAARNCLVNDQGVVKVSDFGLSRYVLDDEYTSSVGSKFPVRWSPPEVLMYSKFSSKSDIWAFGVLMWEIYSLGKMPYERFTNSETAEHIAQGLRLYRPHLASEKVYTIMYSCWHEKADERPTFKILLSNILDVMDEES
T2 sequence (Q06187 whole entry C481S): as the sequence (Q06187 whole entry) above, with C481S counted along it

`Cc1c(-c2ccc(C(N)=O)c3[nH]c4cc(C(C)(C)O)ccc4c23)cccc1-n1cnc2ccccc2c1=O` [BMS-935177]: the “BTK phosphorylation after inhibitor wash out” value in [1] is “regained BTK phosphorylation”.
For orientation: IC50 means the midpoint of a concentration-inhibition curve. Consider `Cc1sc2c(c1C)C(c1ccc(Cl)cc1)=N[C@@H](CC(=O)OC(C)(C)C)c1nnc(C)n1-2` [JQ1], for which the “IC50, BTK WT” value against BTK WT is given as “no activity”. In addition, the “IC50, BTK C481S” value in assay [2] was “no activity”. Further, the IC50 on PI3Kα, at PI3Kγ and at PI3Kδ was over 50 µM throughout.
For `CN[C@@H]1C[C@H]2O[C@@](C)([C@@H]1OC)n1c3ccccc3c3c4c(c5c6ccccc6n2c5c31)C(=O)NC4` [Staurosporine], the “IC50, PI3Kα” value against PI3Kα is “no activity”. Moreover, the “IC50, PI3Kγ” value against PI3Kγ is given as “no activity”. In addition, the “IC50, PI3Kδ” value against PI3Kδ was “no activity”.
As to `C=CC(=O)N1CCC[C@@H](n2nc(-c3ccc(Oc4ccccc4)cc3)c3c(N)ncnc32)C1` [Ibrutinib], the IC50 was 24.8 µM in the assay with JeKo-1 cells [3]; 2.44 µM in the assay with Mino cells [4]; 38 µM in the assay on JeKo-1 BTK C481S cells (read-out: IC50, JeKo-1 BTK C481S); 38.4 µM with JeKo-1 BTK C481S cells (read-out: IC50, anti-proliferative activity, JeKo-1 BTK C481S); 6 µM in the assay on Mino BTK C481S cells (read-out: IC50, Mino BTK C481S); 6.36 µM in the assay with Mino BTK C481S cells (read-out: IC50, anti-proliferative activity, Mino BTK C481S). For the same compound, the “BTK phosphorylation after inhibitor wash out” value in [1] was “retained inhibition of BTK phosphorylation”. For the same compound, the “apoptosis (Annexin V and propidium incorporation)” value was “no significant effect” in the assay on JeKo-1 cells [5] and “mild effect” in the assay with Mino cells [6]. In addition, the “median progression free survival” value in [7] was ~ 14 months. Besides, the overall response rate in assay [7] is recorded as 68%. The “patients reaching a complete response” value in assay [7] is on record as 21%.
